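In this assay, cells in 96-well plates receive the compound at five concentrations for 48 hours. Endpoints are linearly interpolated between the surrounding concentrations. GI50: concentration for 50% inhibition of growth. TGI: total growth inhibition.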
Assays:
Test in all cases: DTP human tumour cell line panel, 48 h
A549 NSCLC = test system: A549 NSCLC
MCF7 breast = test system: MCF7 breast
SNB-19 CNS = test system: SNB-19 CNS
SF-295 CNS = test system: SF-295 CNS
RPMI-8226 leukemia = test system: RPMI-8226 leukemia
K-562 leukemia = test system: K-562 leukemia
KM12 colon = test system: KM12 colon
OVCAR-5 ovarian = test system: OVCAR-5 ovarian
IGROV1 ovarian = test system: IGROV1 ovarian
SNB-75 CNS = test system: SNB-75 CNS

Compound | TGI (A549 NSCLC) | TGI (MCF7 breast) | TGI (SNB-19 CNS) | TGI (SF-295 CNS) | TGI (RPMI-8226 leukemia) | TGI (K-562 leukemia) | TGI (KM12 colon) | TGI (OVCAR-5 ovarian) | TGI (IGROV1 ovarian) | TGI (SNB-75 CNS) | GI50 (A549 NSCLC) | GI50 (MCF7 breast) | GI50 (SNB-19 CNS) | GI50 (SF-295 CNS) | GI50 (RPMI-8226 leukemia) | GI50 (K-562 leukemia) | GI50 (KM12 colon) | GI50 (OVCAR-5 ovarian) | GI50 (IGROV1 ovarian) | GI50 (SNB-75 CNS)
COc1ccccc1/C=C\c1cnnc2ccccc12 | > 10 µM | > 10 µM | > 10 µM | > 10 µM | > 10 µM | > 10 µM | > 10 µM | > 10 µM | > 10 µM | > 10 µM |  |  |  |  |  |  |  |  |  | 
COc1ccc(C2OC(=O)c3c2ccc2ccccc32)c(C)c1 (configuration not stated) | 73.4 µM | 10.1 µM | > 100 µM |  | 60.9 µM | > 100 µM | > 100 µM | > 100 µM | > 100 µM | 30.6 µM |  |  |  |  |  |  |  |  |  | 
Cn1nc(C(F)(F)F)c(-c2ccc(Cl)c(C(F)(F)F)c2)c1-c1ccc(OCc2ccc(Cl)cc2)cc1O | 6.16 µM | 6.01 µM | 8.17 µM | 5.59 µM | 7.29 µM | 7.47 µM | 5.91 µM | 8.26 µM | 8.47 µM | 7.54 µM | 1.66 µM | 1.52 µM | 2.03 µM | 1.64 µM | 1.98 µM | 1.84 µM | 1.6 µM | 1.83 µM | 2.18 µM | 1.45 µM
Cc1ccc2nc3c(C)c(Cl)c(=O)cc-3sc2c1 | 98.2 µM | 61.8 µM | > 100 µM | 81.3 µM | > 52.3 µM | 19 µM | 74.1 µM | > 95.8 µM | > 100 µM | 56.3 µM |  |  |  |  |  |  |  |  |  | 
CC(CN=C(CC(=O)c1ccc(Br)cc1)c1ccccc1)N=C(CC(=O)c1ccc(Br)cc1)c1ccccc1 (configuration not stated) | > 100 µM | > 100 µM | > 100 µM | > 100 µM | 38.6 µM | > 100 µM | > 100 µM | > 100 µM | > 100 µM | > 100 µM | 7.6 µM | 2.91 µM | > 100 µM | 29.2 µM | 4.37 µM | > 100 µM | 32.3 µM | > 100 µM | 3.37 µM | > 100 µM
Nc1ncnc2c1c(C(F)(F)F)cn2[C@@H]1O[C@H](CO)[C@@H](O)[C@H]1O | > 56.1 µM | > 86.3 µM | > 100 µM | > 23.3 µM | 1.82 µM | 1.41 µM |  | > 72.2 µM | > 100 µM | 3.62 µM | 0.324 µM | 0.0405 µM | 0.793 µM | 0.442 µM | 0.151 µM | 0.304 µM | 0.134 µM | 1.02 µM | 0.619 µM | 0.708 µM
O=C1c2ccccc2C(=O)c2c1ccc(C(Br)Br)c2[N+](=O)[O-] | 33.6 µM | 2.54 µM | 4.42 µM | 15.7 µM |  |  | 3.81 µM | 4.4 µM | 2.87 µM | 28.7 µM | 17.6 µM | 0.598 µM | 1.93 µM | 3.7 µM |  |  | 1.85 µM | 1.72 µM | 1.15 µM | 14.1 µM
O=C(O)c1c(O)c2cc(Br)ccc2oc1=O | > 100 µM | > 100 µM | > 100 µM | > 100 µM | > 100 µM | > 100 µM |  | > 100 µM | > 100 µM | > 100 µM |  |  |  |  |  |  |  |  |  | 
O=P(Oc1ccc(Cl)cc1)(Oc1ccc(Cl)cc1)N1CC1 | > 10 µM | > 10 µM | > 10 µM | > 10 µM | > 10 µM | > 10 µM | > 10 µM | > 10 µM |  | > 10 µM |  |  |  |  |  |  |  |  |  | 

Source: PubChem BioAssay (NCI)
